These are literature values, as cited in US20080299050A1, “TOPICAL THERAPIES FOR ORAL MUCOSITIS AND OTHER CONDITIONS” (DrugTech Corporation, priority 2006, published 2008).

One data set deals with gingival wound. Particulars: by mouth for up to 8 weeks prior to gingival excision.
For another data set, the system named is gingiva. The settings on record: administered systemically.
Data set [1] concerns human slin fibroblast cultures.
For data set [2] the following is noted: very large dose applied topically to a pressure ulcer.

Consider `O=C1N=C([O-])NC1(c1ccccc1)c1ccccc1.[Na+]` [phenyloin sodium], for which the gingival wound healing entry in the data set on gingival wound is given as “greatly enhanced”. The side effect result with gingiva is “gingival hyperplasia”.

For the compound `O=C1NC(=O)C(c2ccccc2)(c2ccccc2)N1` [phenyloin, 5,5-diphenyl-2,4-imidazolidinedione], in data set [1] (higher concentration (25 or 50 μg/ml) or longer incubation time (25 h or 48 h)), the “cell proliferation (enhancing effect)” value is given as “reduced or reversed”. Besides, in data set [1] (low concentration (5 μg/ml) and short incubation time (3 h)), the cell proliferation result was “enhanced”. The “systemic absorption of phenyloin” value in data set [2] is given as “little systemic absorption”.
